Measured values: paper PMC10386076, “Discovery of RC-752, a Novel Sigma-1 Receptor Antagonist with Antinociceptive Activity: A Promising Tool for Fighting Neuropathic Pain” (Pharmaceuticals, 2023)

Key:
S1R = target: T1, S1R (Cavia porcellus, UniProt Q60492); experiment: S1R radioligand displacement binding assay ([3H]-(+)-pentazocine); design: species or system guinea pig; settings: for Selectivity (Ki S2R/Ki S1R): ratio Ki S2R/Ki S1R
T1 construct: tissue Harlan-Winkelmann, Borchen, Germany; host or cells: guinea pig brain membrane homogenate
T1 sequence (Q60492 whole entry): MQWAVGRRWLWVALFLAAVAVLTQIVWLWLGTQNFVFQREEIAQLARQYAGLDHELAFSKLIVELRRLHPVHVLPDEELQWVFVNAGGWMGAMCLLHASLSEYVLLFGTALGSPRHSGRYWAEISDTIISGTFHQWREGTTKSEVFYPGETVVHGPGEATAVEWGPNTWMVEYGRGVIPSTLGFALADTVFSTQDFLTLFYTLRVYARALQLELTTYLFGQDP
Procedure: (R/S)-1a–3e were first evaluated for their binding affinity toward the S1R and S2R in a radioligand displacement assay. […] Nonspecific binding was determined using non-radiolabeled (+)-pentazocine and haloperidol in excess. All the binding experiments were carried out in duplicate. […] Haloperidol was used as a control compound in both assays.
Five guinea pig brains were homogenized with the potter (500–800 rpm, 10 up and down strokes) in 6 volumes of cold 0.32 M sucrose. The suspension was centrifuged at 1200× g for 10 min at 4 °C. […] This procedure was repeated twice. The final pellet was resuspended in 56 volumes of buffer and frozen ([…]) in 1.5 mL portions containing about 1.5 mg protein/mL.
The test compound solutions were prepared by dissolving approximately 10 µmol (usually 2–4 mg) of test compound in dimethyl sulfoxide (DMSO, unless otherwise specified), so that a 10 mM stock solution was obtained. To obtain the required test solutions for the assay, the DMSO stock solution was diluted with the respective assay buffer. The filtermats were presoaked in 0.5% aqueous polyethylenamine solution for 2 h at r.t. before use. All the binding experiments were carried out in duplicate in 96-well multiplates. The concentrations given are the final concentrations in the assay. […] The receptor preparation was always added last. During the incubation, the multiplates were shaken at a speed of 500–600 rpm at the specified temperature. […] During the filtration each well was washed five times with 300 µL of water. Subsequently, the filtermats were dried at 95 °C. The solid scintillator was melted on the dried filtermats at 95 °C for 5 min. After the solidifying of the scintillator at r.t., the trapped radioactivity in the filtermats was measured with the scintillation analyzer. Each position on the filtermat corresponding to one well of the multiplate was measured for 5 min with the [^3H]-counting protocol. The overall counting efficiency was 20%. The IC50 values were calculated with GraphPad Prism 3.0 (GraphPad Software, San Diego, CA, USA) by nonlinear regression analysis. The IC50 values were subsequently transformed into Ki values using the equation of Cheng and Prusoff. All the experiments were carried out in duplicates. Compounds with high S1R affinity were tested in three independent experiments, and their Ki values are given as mean value ± SEM from the three measurements. […] (22.0 Ci/mmol; Perkin-Elmer). […] The nonspecific binding was determined with 10 µM unlabeled (+)-pentazocine.

PC12 cells = experiment: NGF-induced neurite outgrowth assay in PC12 cells; format: cell-based; settings: for effect on percentage of differentiated PC12 cells, co-administration with PRE-084: 0.25 μM and 2.5 μM with 10 μM PRE-084, vs PRE-084; for effect on NGF-induced neurite outgrowth, compound alone: 0.25 μM and 2.5 μM, vs NGF
Procedure: At 80% confluence, the cells were either split to allow a further culture expansion or plated onto 48-well flat-bottom plates previously coated with poly-L-ornithine (Sigma Aldrich, Milan, Italy) at the final concentration of 10 μg/cm^2. The cells were plated at low density (2500 cells/well) to allow proper neurite elongation. The PC12 cells were mechanically detached from the flask to avoid cell-surface receptor cleavage and to preserve the correct binding of NGF to the TrkA receptors. To minimize detachment stress, the cells were left in PM for 24 h to recover. […] PRE-084 (10 µM), an S1R agonist, was used to verify that the effects of the selected compounds were due to the S1R modulation. In CTR conditions, the cells were incubated with the drug vehicle. For all the ligands, two replicates per concentration were performed in at least 3 experiments with different PC12 batches.
After 72 h incubation in DM, the cells were fixed with a 4% paraformaldehyde solution (pH 7.4). To allow the neurite visualization with a bright-field microscope, the cells were stained with the Harris Hematoxylin solution (Sigma Aldrich). After staining, images of six fields per well were acquired with a digital camera linked to a bright-field inverted microscope (Optika) (20× magnification). […] Only the cells bearing a neurite as long as their soma’s diameter were identified as differentiated cells. The number of differentiated cells was expressed as the percentage of differentiated cells over the total number of cells.

HeLa cells = experiment: AQP-mediated osmotic water permeability assay (stopped-flow light scattering); settings: pre-treatment 20 μM, heat stress 42 °C 3 h
Procedure: As an orthogonal assay to determine the functional profile of our compounds, the effect on AQP-mediated water permeability was investigated. AQPs are a family of transmembrane proteins involved in the transport of water and other small molecules (e.g., H2O2) through cell membranes. AQP functions are thus critical in ensuring reactive oxygen species (ROS) scavenging and cell survival. […] Briefly, the osmotic water permeability of HeLa cells was measured by a stopped-flow light scattering method and expressed as a percentage of k relative.
Osmotic water permeability was measured in the HeLa cell suspension by the stopped-flow light scattering method, as previously described. The experiments were performed at 25 °C on the stopped-flow apparatus (RX2000, Applied Photophysics, Leatherhead, UK) with a pneumatic drive accessory (DA.1, Applied Photophysics) straightforwardly coupled with a Varian Cary 50 spectrometer (Varian Australia Pty Ltd., Mulgrave, Australia). Briefly, scattered light intensity with a dead time of 6 ms was recorded at a wavelength of 450 nm. […] To evaluate the effect of the test compounds on water permeability, the HeLa cells were divided into different groups: (1) controls, cells incubated at r.t. (21 °C) in the presence of the same volume of methanol as that of the treated cells; (2) heat-stressed cells, cells heat-treated in a water thermostatic and shacking bath at 42 °C for 3 h; (3) heat-stressed cells pre-treated with the test compounds at a 20 µM final concentration (dissolved in methanol).

Row | Molecule | Ki (S1R) | Selectivity (Ki S2R/Ki S1R) (S1R) | other results
1 | OCC(CCN1CCC(Cc2ccccc2)CC1)c1ccc(-c2ccccc2)cc1 (stereo not drawn) [Compound 1e, 2-([1,1’-biphenyl]-4-yl)-4-(4-benzylpiperidin-1-yl)butan-1-ol] | 94 ± 12 nM | 2 | –
2 | CN(CCC(CO)c1ccc2ccccc2c1)Cc1ccccc1 (stereo not drawn) [Compound 2c, 4-(benzyl(methyl)amino)-2-(naphthalen-2-yl)butan-1-ol] | 9.5 ± 1.8 nM | 4 | –
3 | OCC(CCN1CCOCC1)c1ccc(-c2ccccc2)cc1 (stereo not drawn) [Compound 1a, 2-([1,1’-biphenyl]-4-yl)-4-morpholinobutan-1-ol] | 13 ± 3 nM | 24 | effect on percentage of differentiated PC12 cells, co-administration with PRE-084 (PC12 cells): significantly reduced; effect on NGF-induced neurite outgrowth, compound alone (PC12 cells): did not significantly enhance; effect on water permeability in heat-stressed HeLa cells (HeLa cells): in line with that of S1R antagonists
4 | OCC(CCN1CCCCC1)c1ccc2ccccc2c1 (stereo not drawn) [Compound 2d, 2-(naphthalen-2-yl)-4-(piperidin-1-yl)butan-1-ol] | 15 ± 6 nM | 11 | effect on percentage of differentiated PC12 cells, co-administration with PRE-084 (PC12 cells): significantly reduced; effect on NGF-induced neurite outgrowth, compound alone (PC12 cells): did not significantly enhance; effect on water permeability in heat-stressed HeLa cells (HeLa cells): in line with that of S1R antagonists
5 | NGF | – | – | differentiation, % of PC12 cells (PC12 cells; NGF alone at 2.5 nM): 22 ± 2%
6 | OCC(CCN1CCOCC1)c1ccc2ccccc2c1 (stereo not drawn) [Compound 2a, 4-morpholino-2-(naphthalen-2-yl)butan-1-ol] | 206 ± 37 nM | 31 | –
7 | CCN(CC)CCC(CO)c1ccc2cc(OC)ccc2c1 (stereo not drawn) [Compound 3b, 4-(diethylamino)-2-(6-methoxynaphthalen-2-yl)butan-1-ol] | 87 ± 28 nM | 14 | –
8 | CCN(CC)CCC(CO)c1ccc(-c2ccccc2)cc1 (stereo not drawn) [Compound 1b, 2-([1,1’-biphenyl]-4-yl)-4-(diethylamino)butan-1-ol] | 20 ± 4 nM | 34 | –
9 | CCN(CC)CCC(CO)c1ccc2ccccc2c1 (stereo not drawn) [Compound 2b, 4-(diethylamino)-2-(naphthalen-2-yl)butan-1-ol] | 110 ± 25 nM | 10 | –
10 | COc1ccc2cc(C(CO)CCN3CCC(Cc4ccccc4)CC3)ccc2c1 (stereo not drawn) [Compound 3e, 4-(4-benzylpiperidin-1-yl)-2-(6-methoxynaphthalen-2-yl)butan-1-ol] | 85 ± 11 nM | 0.6 | –
11 | COc1ccc2cc(C(CO)CCN(C)Cc3ccccc3)ccc2c1 (stereo not drawn) [Compound 3c, 4-(benzyl(methyl)amino)-2-(6-methoxynaphthalen-2-yl)butan-1-ol] | 20 ± 3 nM | 7 | –
12 | CCCN(CCC)CCc1ccc(OC)c(OCCc2ccccc2)c1 [NE-100, reference compound] | – | – | effect on water permeability in heat-stressed HeLa cells (HeLa cells): has no effect
13 | O=C(OCCN1CCOCC1)C1(c2ccccc2)CCCCC1 [PRE-084, reference compound] | – | – | neurite outgrowth, % of PC12 cells (PC12 cells; PRE-084 at 10 μM, with NGF): 36 ± 4%; effect on water permeability in heat-stressed HeLa cells (HeLa cells): effective in restoring water permeability
14 | COc1ccc2cc(C(CO)CCN3CCOCC3)ccc2c1 (stereo not drawn) [Compound 3a, 2-(6-methoxynaphthalen-2-yl)-4-morpholinobutan-1-ol] | 324 ± 10 nM | 4 | –
15 | OCC(CCN1CCC(Cc2ccccc2)CC1)c1ccc2ccccc2c1 (stereo not drawn) [Compound 2e, 4-(4-benzylpiperidin-1-yl)-2-(naphthalen-2-yl)butan-1-ol] | 25 ± 4 nM | 13 | –
16 | COc1ccc2cc(C(CO)CCN3CCCCC3)ccc2c1 (stereo not drawn) [Compound 3d, 2-(6-methoxynaphthalen-2-yl)-4-(piperidin-1-yl)butan-1-ol] | 38 ± 9 nM | 32 | –
